Assay results taken from patent US20250058000A1, “Treatment of Proliferative Disorders Using Antibodies to PSMA” (Cornell University, priority 2007, published 2025).

Legend:
[1] = system: LNCaP cells; assay: Effect of folic acid concentration on cell growth rate; format: cell-based, human; conditions: folate level increased above physiological; FIG. 3
Excerpt: Increasing the folate level above physiological can increase the growth rate by almost 2-fold. In cell lines that express PSMA (such as LNCaP), the same growth increase is also found if folate is provided in the form of ‘natural’ or dietary folate (e.g., polyglutamated folate) which is digested to monoglutamated folate by PSMA. The latter (monoglutamated folate) can cross the cell membrane whereas polyglutamated folate cannot. Anti-PSMA Antibody, J415, Inhibits PSMA tic Activity.

[2] = system: PSMA expression, SK-RC-39; assay: PSMA expression (J591 labeling, FACS) after three weeks in lowered-folate media; format: cell-based, human; conditions: folate lowered to 10 nM, vs standard media, FIG. 7
Description: (§1) According to the World Health Organization, physiological level of serum folate is 12 nmol/L. Standard tissue culture media contains approx 150× the concentration of folate found in human serum/plasma. […] FIGS. 5-11 show the PSMA expression levels of different cell lines were grown for three weeks in standard media (containing 150× physiological concentration of folate; lines 2), standard media with only 50 nM folate, or standard media with only 10 nM folate. The cells were labeled with anti-PSMA antibody J591 followed by a fluorescently labeled secondary antibody that recognizes J591. Lines 1 show the cells labeled with a negative isotype control antibody followed by the labeled secondary antibody.

[3] = system: PSMA expression, SK-RC-31; assay: as above; format: cell-based, human; conditions: folate lowered to 10 nM, vs standard media, FIG. 5
Description: as §1

[4] = system: PSMA expression, PC3; assay: as above; format: cell-based, human; conditions: folate lowered to 50 nM or less, vs standard media, FIG. 10
Description: as §1

[5] = system: PSMA expression, SK-RC-42; assay: as above; format: cell-based, human; conditions: folate lowered to 10-50 nM, vs standard media, FIG. 6
Description: as §1

[6] = system: PSMA expression, LNCaP; assay: as above; format: cell-based, human; conditions: folate lowered in the media, FIG. 11
Description: as §1

[7] = system: PSMA expression, Cwr22rv1; assay: as above; format: cell-based, human; conditions: folate lowered to 10 nM, vs standard media, FIG. 9
Description: as §1

[8] = system: PSMA expression, SK-RC-06; assay: as above; format: cell-based, human; conditions: folate lowered to 50 nM or less, vs standard media, FIG. 8
Description: as §1

[9] = system: LNCaP cells; assay: Docetaxel inhibition of LNCaP cell growth at different folate concentrations (cell count); format: cell-based, human; conditions: 10 or 20 μg/ml docetaxel for 72 hours, cells counted after 1 week; FIG. 12
Description: Docetaxel (taxotere) at concentrations of 10 or 20 μg/ml was incubated with LNCaP cells for 72 hours and at different concentrations of folate supplied in the form of folic acid from culture medium. Cells were counted after 1 week. […] The open bar is the control without treatment with docetaxel, the speckled bars are cells treated with 10 ug/ml docetaxel together with the indicated concentration of folate, and the striped bars are cells treated with 20 ug/ml docetaxel together with the indicated concentration of folate. The indicated concentrations of folate are over and above the physiological level of folate provided by the folate present in fetal calf serum (for example, 12 nm folate represents 12 nm folate above the physiological concentration). […] It is likely that decreased folate availability to cancer cells would enhance the anti-tumor effect of other cytotoxic, cytostatic and hormonal.

[10] = system: prostate cancer; conditions: patients after developing androgen-independence; taxane-based chemotherapy; cited from earlier work

For `Nc1nc2ncc(CNc3ccc(C(=O)N[C@@H](CCC(=O)O)C(=O)O)cc3)nc2c(=O)[nH]1` [folate, folic acid], the “Increase of growth rate” value [1] was roughly 2 fold, the “Increase in PSMA expression” value [2] was 250% and the “Increase in PSMA expression” value [3] was 250%. For the same molecule, the “Increase in PSMA expression” value [4] was 400%, the “Increase in PSMA expression” value [5] was 650% and the “Upregulation of PSMA expression (in words)” value [6] was “did not cause upregulation of PSMA expression”. The “Increase in PSMA expression” value [7] was 950% and the “Increase in PSMA expression” value [8] was 225%.

In the case of `CC(=O)O[C@@]12CO[C@@H]1C[C@H](O)[C@@]1(C)C(=O)[C@H](O)C3=C(C)[C@@H](OC(=O)[C@H](O)[C@@H](NC(=O)OC(C)(C)C)c4ccccc4)C[C@@](O)([C@@H](OC(=O)c4ccccc4)[C@H]21)C3(C)C` [docetaxel], the “Cell killing/inhibition of growth depending on folate level (in words)” value [9] is listed as “decreasing folate levels increases the cell killing/inhibition of growth” and the Median survival [10] is listed as 19 months.
